Results on eight compounds are retold here after PubChem BioAssay (NCI).

Some test systems named below: CAKI-1 renal; MCF7 breast; SF-295 CNS; HOP-92 NSCLC; 786-0 renal; HCT-15 colon; SK-MEL-5 melanoma; SNB-75 CNS; T-47D breast; A498 renal.
Common to all, as to experiment: growth of human tumour cells (NCI), 48 h

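Each compound was tested at five concentrations against cells in 96-well plates for 48 hours. Abbreviation: GI50, concentration required for 50% inhibition of growth. Definition used: TGI = concentration required for complete inhibition of growth.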 Bounds are passed on as bounds.

With `N#Cc1cccc(NC(=O)c2oc3ccccc3c2-c2cnn(-c3ccccc3)c2)c1`, the GI50 with CAKI-1 renal was more than 500 µM; in the experiment on MCF7 breast, 209 µM; in the experiment with SF-295 CNS, 430 µM; in the experiment with HOP-92 NSCLC it was 121 µM; in the experiment on 786-0 renal, 221 µM; with HCT-15 colon, more than 500 µM. Moreover, the GI50 is more than 500 µM in the experiment with SK-MEL-5 melanoma and 82 µM in the experiment on SNB-75 CNS. Moreover, the TGI in the experiment with CAKI-1 renal, in the experiment on MCF7 breast, with SF-295 CNS, in the experiment with HOP-92 NSCLC, in the experiment with 786-0 renal and in the experiment with HCT-15 colon was more than 500 µM each time. In addition, the figures for the TGI in the experiment on SK-MEL-5 melanoma and in the experiment on SNB-75 CNS were more than 500 µM and 493 µM, respectively.

Take `COc1cccc(C2NC(=S)NC(C)=C2C(=O)Nc2ccc(F)c(Cl)c2)c1` (configuration not stated): the GI50 was 48.9 µM in the experiment on CAKI-1 renal; 20.2 µM in the experiment with MCF7 breast; 22.4 µM with SF-295 CNS; more than 50 µM with HOP-92 NSCLC; more than 50 µM with 786-0 renal; more than 50 µM with T-47D breast. The figures for the GI50 in the experiment on HCT-15 colon and in the experiment on SK-MEL-5 melanoma were 23.7 µM and 13.3 µM, respectively. Besides, the TGI in the experiment on CAKI-1 renal, in the experiment on MCF7 breast, in the experiment with SF-295 CNS, in the experiment on HOP-92 NSCLC, in the experiment with 786-0 renal and in the experiment with T-47D breast was more than 50 µM throughout. For the same compound, the TGI was more than 50 µM with HCT-15 colon and 32.9 µM in the experiment with SK-MEL-5 melanoma.

In the case of `O=C1C(Cl)=C(Nc2cccc(O)c2)C(=O)N1c1ccc(Cl)c(Cl)c1`, the GI50 in the experiment with CAKI-1 renal was 22.8 µM; in the experiment on MCF7 breast, 25.1 µM; with SF-295 CNS it was 25.9 µM; in the experiment on HOP-92 NSCLC, 21.8 µM; in the experiment with 786-0 renal, 17.7 µM; in the experiment on A498 renal, 12.1 µM. Besides, the figures for the GI50 in the experiment with T-47D breast, in the experiment with HCT-15 colon and in the experiment on SK-MEL-5 melanoma were 41 µM, 19.9 µM and 20 µM, respectively. Besides, the TGI with CAKI-1 renal was found to be 59.1 µM; in the experiment with MCF7 breast, 85.1 µM; in the experiment on SF-295 CNS it was 83.5 µM; in the experiment with HOP-92 NSCLC, 70.6 µM; with 786-0 renal, 35.3 µM; in the experiment with A498 renal it was 28.7 µM. Moreover, the results for the TGI in the experiment on T-47D breast, with HCT-15 colon and in the experiment on SK-MEL-5 melanoma were more than 100 µM, 45.5 µM and 64.7 µM, respectively.

On to `Nc1ccccc1NC(=O)c1ccc(CN2CCC/C(=C\c3cccc(Cl)c3)C2=O)cc1`, for which the GI50 with MCF7 breast was 0.0332 µM; with SF-295 CNS it was 1.05 µM; in the experiment with HOP-92 NSCLC it was 1.76 µM; in the experiment with 786-0 renal, 0.366 µM; in the experiment with A498 renal it was 0.441 µM; in the experiment on T-47D breast, 3.34 µM. The GI50 was 0.0419 µM with HCT-15 colon, 0.0836 µM with SK-MEL-5 melanoma and 0.284 µM with SNB-75 CNS. In addition, the TGI with MCF7 breast was 26.6 µM; in the experiment on SF-295 CNS, 15.2 µM; in the experiment on HOP-92 NSCLC, 16.2 µM; in the experiment with 786-0 renal, 2.17 µM; with A498 renal, 3.66 µM; in the experiment on T-47D breast it was 56.6 µM. The values for the TGI in the experiment on HCT-15 colon, in the experiment on SK-MEL-5 melanoma and with SNB-75 CNS were more than 100 µM, 1.08 µM and 9.04 µM, respectively.

`CC(=O)OCC1OC(OC2=C(CC=C(Cl)Cl)C(=O)c3ccccc3C2=O)C(OC(C)=O)C(OC(C)=O)C1OC(C)=O` (configuration not stated): the GI50 was 4.91 µM in the experiment with CAKI-1 renal; 16.3 µM with SF-295 CNS; 0.222 µM in the experiment on HOP-92 NSCLC; 16.6 µM with 786-0 renal; 3.32 µM in the experiment on A498 renal; 1.99 µM in the experiment with T-47D breast. In addition, the GI50 in the experiment with HCT-15 colon is 3.64 µM; in the experiment on SK-MEL-5 melanoma, 4.32 µM; with SNB-75 CNS, 2.68 µM. In addition, the TGI in the experiment on CAKI-1 renal amounted to 17.6 µM; in the experiment on SF-295 CNS, 31.4 µM; with HOP-92 NSCLC it was 1.59 µM; with 786-0 renal, 31.8 µM; with A498 renal, 20 µM; in the experiment with T-47D breast, 5.41 µM. The TGI with HCT-15 colon is 21.3 µM; in the experiment on SK-MEL-5 melanoma, 17 µM; with SNB-75 CNS it was 19.9 µM.

On to `C=C1C(=O)O[C@@H]2C[C@@H]1CC[C@@]1(C)O[C@@H]1CC[C@@]1(C)O[C@@H]1CC[C@@]2(C)O`, for which the GI50 with CAKI-1 renal was 22.7 µM; with MCF7 breast, 55.2 µM; in the experiment on SF-295 CNS it was 19.6 µM; with 786-0 renal, 19.2 µM; with T-47D breast, 2.09 µM; in the experiment on HCT-15 colon it was 24 µM. Moreover, the GI50 in the experiment on SK-MEL-5 melanoma is 16.2 µM. In addition, the TGI in the experiment on CAKI-1 renal was 72.8 µM; with MCF7 breast, more than 100 µM; in the experiment with SF-295 CNS, 60.6 µM; in the experiment with 786-0 renal it was 42.2 µM; with T-47D breast, 17 µM; in the experiment with HCT-15 colon, 70.1 µM. The TGI with SK-MEL-5 melanoma came to 31.4 µM.

As for `NCC1OC(OC2C(CO)OC(OC3C(O)C(N)CC(N)C3OC3OC(CO)C(O)C(O)C3N)C2O)C(N)C(O)C1O` (configuration not stated), the GI50 in the experiment on CAKI-1 renal, in the experiment on MCF7 breast, in the experiment on SF-295 CNS, in the experiment with HOP-92 NSCLC, in the experiment with 786-0 renal and with HCT-15 colon was more than 50 µg/mL in each case. The GI50 in the experiment with SNB-75 CNS is more than 50 µg/mL. Also, the TGI in the experiment with CAKI-1 renal, in the experiment with MCF7 breast, in the experiment with SF-295 CNS, in the experiment with HOP-92 NSCLC, in the experiment on 786-0 renal and with HCT-15 colon was more than 50 µg/mL throughout. In the experiment with SNB-75 CNS, this compound returned a TGI of more than 50 µg/mL.

For the compound `COc1cc(C2CC(c3cc(C)ccc3C)=NN2c2ccc(S(=O)(=O)NC(=O)NCc3ccccc3)cc2)cc(OC)c1OC` (configuration not stated), the GI50 is 3.17 µM with CAKI-1 renal; 2.58 µM in the experiment on MCF7 breast; 1.96 µM in the experiment on HOP-92 NSCLC; 3.79 µM with 786-0 renal; 3.09 µM in the experiment with A498 renal; 4.19 µM in the experiment with T-47D breast. Also, the GI50 was 3.18 µM in the experiment on HCT-15 colon, 2.04 µM in the experiment with SK-MEL-5 melanoma and 2.33 µM in the experiment on SNB-75 CNS. Besides, the TGI was 19.9 µM with CAKI-1 renal; 9.56 µM with MCF7 breast; 7.47 µM with HOP-92 NSCLC; 23.5 µM with 786-0 renal; 9.03 µM in the experiment with A498 renal; 30.1 µM with T-47D breast. Besides, the TGI was more than 100 µM in the experiment with HCT-15 colon, 4.36 µM in the experiment with SK-MEL-5 melanoma and 9.32 µM in the experiment on SNB-75 CNS.
